{"source": "patent EP0147194B1", "about": "(Hosobuchi, Yoshio, priority 1983, dated 1989)", "key": {"[1]": {"system": "neurologic deficits secondary to cerebral ischemia", "conditions": "cited from earlier work"}, "[2]": {"system": "neurologic deficits produced by unilateral carotid ligation", "conditions": "cited from earlier work"}, "[3]": {"system": "acute focal cerebral ischemia", "set-up": "species or system cats", "conditions": "in vivo, ip"}, "[4]": {"system": "analgesic response", "conditions": "cited from earlier work"}}, "note": "Read-outs that look alike come from different tables or passages of the source.", "data": [{"compound": "CN1CC[C@]23c4c5ccc(O)c4O[C@H]2[C@@H](O)C=C[C@H]3[C@H]1C5", "note": "[morphine]", "values": [{"measurement": "neurologic deficits secondary to cerebral ischemia", "setting": "[1]; in vivo", "result": "exacerbates them"}]}, {"compound": "C=CCN1CC[C@]23c4c5ccc(O)c4O[C@H]2C(=O)CC[C@@]3(O)[C@H]1C5", "note": "[naloxone, 17 - allyl - 4,5a - epoxy - 3,14 - dihydroxymorphinan - 6 - one]", "values": [{"measurement": "neurologic deficits secondary to cerebral ischemia", "setting": "[1]; man, Lancet 2:272-275 (1981)", "result": "can reverse neurologic deficits"}, {"measurement": "neurologic function and infarct size", "setting": "[2]; gerbils, temporary carotid occlusion, Levy et al. (1982)", "result": "did not produce improved neurologic function or alter infarct size"}, {"measurement": "neurologic deficits produced by unilateral carotid ligation", "setting": "[2]; gerbils, intraperitoneal administration, Science 215:69-71 (1982)", "result": "can be reversed"}, {"measurement": "survival and neurologic function", "setting": "[2]; several different models of stroke in gerbils, Holaday and D'Amato (1982)", "result": "no beneficial effect"}, {"measurement": "prolonging survival (mortality as a function of time following the cerebral artery occlusions)", "setting": "[3]", "result": "prolonged survival"}]}, {"compound": "Dynorphin: opioid peptide first isolated from pituitary glands; natural compound's full 17 amino acid sequence", "values": [{"measurement": "analgesic potency", "setting": "[4]; mice", "result": "little or no analgesic potency"}, {"measurement": "effect on narcotic analgesia in tolerant animals", "setting": "[4]; morphine-tolerant animals / tolerant hosts", "result": "potentiates the analgetic effect of both morphine and β-endorphin"}, {"measurement": "effect on narcotic analgesia in naive animals", "setting": "[4]; naive animals, analgesic response to morphine and β-endorphin / narcotic analgesics", "result": "inhibits, or antagonizes, the analgesic response to both morphine and β-endorphin"}]}, {"compound": "O=C1CC[C@@]2(O)[C@H]3Cc4ccc(O)c5c4[C@@]2(CCN3CC2CC2)[C@H]1O5", "note": "[naltrexone]", "values": [{"measurement": "prolonging survival (mortality as a function of time following the cerebral artery occlusions)", "setting": "[3]", "result": "prolonged survival"}]}]}
